Columns and labels:
[1] = system: T1, poplar AOR (EC 1.3.1.74), alkenal/one oxidoreductase; assay: NADPH consumption at A340 nm, NADPH varied, leaf protein extract; type: biochemical, Populus x canescens; settings: co-substrate MVK; apparent in vitro, crude leaf extract; 50 mM Tris/HCl, 20 mM MgCl2, 5% glycerol, 2 mM DTT; read-out: Michaelis-Menten constant
T1 construct: gene AORchl; native enzyme in desalted (Sephadex G-25 PD-10) crude leaf protein extract, not purified; AORchl predominantly expressed in leaf, AORcyt-II in stem; active isoenzyme not determined

[2] = system: T1, poplar AOR (EC 1.3.1.74), alkenal/one oxidoreductase; assay: NADPH consumption at A340 nm, MVK varied, leaf protein extract; type: biochemical, Populus x canescens; settings: co-substrate NADPH; apparent in vitro, crude leaf extract; 50 mM Tris/HCl, 20 mM MgCl2, 5% glycerol, 2 mM DTT; read-out: Michaelis-Menten constant

Row | Km [1] [mM] | SMILES | Km [2] [mM]
1 | 0.049 | NC(=O)C1=CN([C@@H]2O[C@H](COP(=O)(O)OP(=O)(O)OC[C@H]3O[C@@H](n4cnc5c(N)ncnc54)[C@H](OP(=O)(O)O)[C@@H]3O)[C@@H](O)[C@H]2O)C=CC1 [NADPH] | 
2 |  | C=CC(C)=O [MVK] | 14.1

From paper PMC7894407, “Rapid conversion of isoprene photooxidation products in terrestrial plants” (Communications earth & environment, 2020)
